Measured values: PMC7567501 (Journal of Enzyme Inhibition and Medicinal Chemistry, 2019)

What was measured:
[1] = Cu(II) complexation, UV-vis spectrophotometric titration; format: physicochemical; settings: 25% w/w DMSO/water
Description: It has been largely accepted that chelators interfere both in metal-induced Aβ aggregation/neurotoxicity and on metal homeostasis of AD brains. Among the hybrids with BF hydroxyl substituent, compound 21 was chosen as a representative model to analyse the concomitant chelating capacity towards the redox-active (Fe(III), Cu(II)) and Aβ-binding (Cu(II)) metal ions. Due to solubility reasons, these studies were performed in a mixed 25% (w/w) DMSO/water medium, In fact, DMSO was chosen because it is a widely used and well tolerated solvent in biological and cellular studies, the amounts of ligand (<7 µM) and DMSO (<1%) employed in culture media being quite low with concomitant no alterations observed in cells.
The chelating ability of compound 21 towards the two metal ions under study (Fe(III) and Cu(II)) was evaluated on the basis of the global formation constants of the complexes, obtained by treatment of the UV-vis spectrophotometric data (see Table 1).
For the metal complexation studies, the aqueous iron (FeCl3, 0.0177 M) and copper (CuCl2, 0.015 M) stock solutions were prepared from 1000 ppm standards (Titrisol) and their metal content was evaluated by atomic absorption. To prevent hydrolysis, the iron stock solution was prepared in excess of acid chloride and its exact concentration in HCl determined by the usual standard-addition method using 0.1 M HCl (Titrisol). The 0.1 M HCl solution, used in spectrophotometric titrations, was prepared from a Titrisol ampoule while the titrant was from carbonate free commercial concentrate (Titrisol, KOH 0.1 M ampoules). The KOH solution was standardised by titration with a solution of potassium hydrogen phthalate and was discarded whenever the percentage of carbonate, determined by Gran’s method, was greater than 0.5% of the total amount of base.
The electronic spectra and the AChE inhibition assays were performed in a 1-cm path length quartz cell with a Perkin Elmer Lambda 35 spectrophotometer equipped with a temperature programmer PTP1 + 1 Peltier System (T = 25.0 ± 0.1 °C). The enzyme AChE 500 U, extracted from Electrophorus electricus (electric eel), was purchased from Sigma-Aldrich.

SH-SY5Y cells [2] = experiment: Dose-response screening for non-toxic concentrations, MTT reduction assay; format: cell-based, human; settings: 10 µM to 40 µM, 25 h
Description: The neuroprotective effect of these new multi-target drugs designed for AD was evaluated using SH-SY5Y cells treated with Aβ1-42 peptides or ascorbate/iron. For each compound we performed a dose-response curve to select a non-toxic concentration (Figure 7).
Figure 7. Dose-response screening to select non-toxic concentrations of TAC-BF hybrids. Cells were treated with varying concentration of TAC-BF conjugates (from 10 μM to 40 μM) for 25 h and cell viability was determined using the MTT reduction assay.
SH-SY5Y human neuroblastoma cell line (ATCC-CRL-2266) is grown in Dulbecco’s modified Eagle’s medium (DMEM), and were obtained from Gibco-Invitrogen (Life Technologies Ltd, UK) with 10% heat inactivated foetal calf serum, containing 50 U/mL penicillin and 50 µg/mL streptomycin, under a humidified atmosphere of 95% air- 5% CO2 at 37 °C. Cells were plated at 0.12 × 10^6 cells/mL for cell viability assay. The tested compounds (18, 19, 20, 21, 23 and 24) were dissolved in DMSO at a concentration of 50 mM and aliquots were stored at −20 °C. We performed a dose-response screening (from 10 µM to 40 µM) in order to choose the highest non-toxic concentration. As a result we selected: 20 µM final concentrations for compounds 18, 19, 20 and 23; 20 µM final concentration for compound 19; 35 µM final concentration for compounds 21 and 24. […] The compounds were added to the cell media 1 h before the incubation with Aβ1-42 or L-ascorbic acid/ferrous sulphate. Aβ1-42 or L-ascorbic acid/ferrous sulphate where incubated alone or with the compound for an additional 24 h. Aβ1-42 was prepared as 276.9 µM stock in sterile water and added to the medium at 2.5 µM final concentration. Ferrous sulphate was freshly prepared as 0.36 M stock in water and added to the medium at 500 µM final concentration. L-Ascorbic Acid was freshly prepared as 80 mM stock in water and added to the medium at 5 mM final concentration. Aβ1-42 was purchased from Bachem (Torrance, CA, USA) and ferrous sulphate and L-ascorbic acid from Sigma Chemical Co (St. Louis, MO, USA).
Cell viability was determined by the MTT (3–(4,5-dimethylthiazol-2-yl)-2,5-diphenyltetrazolium bromide) reduction test. In viable cells, the enzyme succinate dehydrogenase metabolises MTT into a formazan that absorbs light at 570 nm. Following the cell treatment protocol, the medium was aspirated and 0.5 mL MTT (0.5 mg/mL) was added to each well. The plate was then incubated at 37 °C for 1 h 30 min protected from light. At the end of the incubation period, the formazan precipitates were solubilised with 0.5 mL of acidic isopropanol (0.04 M HCl/isopropanol). The absorbance was measured at 570 nm[51]. Cell reduction ability was expressed as a percentage of untreated control cells.

SH-SY5Y cells [3] = experiment: Neuroprotection against ascorbate/iron (Asc/Fe) toxicity, MTT reduction assay; format: cell-based, human; settings: Asc/Fe 5 mM/500 μM 24 h after 1 h compound; 18, 19, 20, 23 at 20 µM; 21, 24 at 35 µM
Description: Figure 9. Neuroprotective effect of TAC-BF conjugates against L-Ascorbic Acid (AscH(-))/Ferrous Sulphate (Fe) toxicity on SH-SY5Y cells. Cells were treated with Asc/Fe (5 mM/500 μM, respectively) for 24 h, after treatment for 1 h in the absence or in the presence of the compounds. Evaluation of cell viability was performed by using MTT reduction assay. […] (compounds: 18, 19, 20 and 23 – 20 µM; 21, 24 – 35 µM).
(§1) SH-SY5Y human neuroblastoma cell line (ATCC-CRL-2266) is grown in Dulbecco’s modified Eagle’s medium (DMEM), and were obtained from Gibco-Invitrogen (Life Technologies Ltd, UK) with 10% heat inactivated foetal calf serum, containing 50 U/mL penicillin and 50 µg/mL streptomycin, under a humidified atmosphere of 95% air- 5% CO2 at 37 °C. Cells were plated at 0.12 × 10^6 cells/mL for cell viability assay. The tested compounds (18, 19, 20, 21, 23 and 24) were dissolved in DMSO at a concentration of 50 mM and aliquots were stored at −20 °C. We performed a dose-response screening (from 10 µM to 40 µM) in order to choose the highest non-toxic concentration. […]
(§2) Cell viability was determined by the MTT (3–(4,5-dimethylthiazol-2-yl)-2,5-diphenyltetrazolium bromide) reduction test. […] The absorbance was measured at 570 nm[51]. Cell reduction ability was expressed as a percentage of untreated control cells.

SH-SY5Y cells [4] = experiment: Neuroprotection from Aβ42-induced toxicity, MTT reduction assay; format: cell-based, human; settings: Aβ42 2.5 μM 24 h; 1 h pre-incubation + 24 h co-incubation; 18, 19, 20, 23 at 20 µM; 21, 24 at 35 µM
Description: Figure 8. Neuroprotective effect of TAC-BF hybrids from Aβ42-induced toxicity on SH-SY5Y cells. Cells were treated with Aβ42 peptide (2.5 μM) for 24 h in the absence or in the presence of the compounds (1 h pre-incubation + 24 h co-incubation). Evaluation of cell viability was performed using the MTT reduction assay. […] (compounds: 18, 19, 20 and 23 – 20 µM; 21, 24 – 35 µM).
as §1, §2

O=C(NCCCNc1c2c(nc3ccccc13)CCCC2)c1cc2cccc(O)c2o1 [Compound 21, 7-Hydroxy-N-(3-((1,2,3,4-tetrahydroacridin-9-yl)amino)propyl)benzofuran-2-carboxamide]
log βCumHhLl, species (1–11) ([1]; T = 25.0 °C, I = 0.1 M KCl): 2.25(3) | log βCumHhLl, species (101) ([1]; T = 25.0 °C, I = 0.1 M KCl): 10.87(6) | log βCumHhLl, species (102) ([1]; T = 25.0 °C, I = 0.1 M KCl): 20.68(8) | log βCumHhLl, species (111) ([1]; T = 25.0 °C, I = 0.1 M KCl): 19.02(2) | pM (pCu) = −log[M] ([1]; pH 7.4, CL/CM = 10, CM = 10^−6 M): 11.9 | highest non-toxic concentration selected from dose-response screening (SH-SY5Y cells [2]): 35 µM | Neuroprotective effect against Asc/Fe toxicity (cell viability) (SH-SY5Y cells [3]): lowest capacity for in cell radical scavenging

COc1cccc2cc(C(=O)NCCCCNc3c4c(nc5cc(Cl)ccc35)CCCC4)oc12 [Compound 20, N-(4-((6-chloro-1,2,3,4-tetrahydroacridin-9-yl)amino)butyl)-7-methoxybenzofuran-2-carboxamide]
highest non-toxic concentration selected from dose-response screening (SH-SY5Y cells [2]): 20 µM

COc1cccc2cc(C(=O)NCCCNc3c4c(nc5cc(Cl)ccc35)CCCC4)oc12 [Compound 19, N-(3-((6-chloro-1,2,3,4-tetrahydroacridin-9-yl)amino)propyl)-7-methoxybenzofuran-2-carboxamide]
highest non-toxic concentration selected from dose-response screening (SH-SY5Y cells [2]): 20 µM | Neuroprotective effect from Aβ42-induced toxicity (cell viability) (SH-SY5Y cells [4]): prevented that Aβ-induced cell toxicity | Neuroprotective effect against Asc/Fe toxicity (cell viability) (SH-SY5Y cells [3]): appeared to best achieve cell protection from Asc/Fe-induce oxidative stress

O=C(NCCCCNc1c2c(nc3cc(Cl)ccc13)CCCC2)c1cc2cccc(O)c2o1 [Compound 24, N-(4-((6-chloro-1,2,3,4-tetrahydroacridin-9-yl)amino)butyl)-7-hydroxybenzofuran-2-carboxamide]
highest non-toxic concentration selected from dose-response screening (SH-SY5Y cells [2]): 35 µM

O=C(NCCCNc1c2c(nc3cc(Cl)ccc13)CCCC2)c1cc2cccc(O)c2o1 [Compound 23, N-(3-((6-chloro-1,2,3,4-tetrahydroacridin-9-yl)amino)propyl)-7-hydroxybenzofuran-2-carboxamide]
highest non-toxic concentration selected from dose-response screening (SH-SY5Y cells [2]): 20 µM | Neuroprotective effect from Aβ42-induced toxicity (cell viability) (SH-SY5Y cells [4]): prevented that Aβ-induced cell toxicity
